Marks after values point to notes of the source that are not given here.
Experiments:
[1] = target: T1, P-gp (Homo sapiens, UniProt P08183); assay: ATP cell depletion (ATPlite assay) in MDCK-MDR1 cells; assay type: cell-based; conditions: Yes/No
T1 construct: expressed in transfected cells; host or cells: MDCK-MDR1 (Madin-Darby Canine Kidney cells, gift of Prof. P. Borst, NKI-AVL)
In short: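 MDCK-MDR1 cells seeded at 20,000 per well and grown overnight were treated 2 h at 37 °C, 5% CO2 with compounds at 1 to 100 µM. After cell lysis and substrate addition, luminescence was measured following ten minutes of dark adaptation as the readout of cellular ATP.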

[2] = target: T1, P-gp; assay: Inhibition of Calcein-AM transport in MDCK-MDR1 cells; assay type: cell-based; conditions: for EC50: Calcein-AM, MDCK-MDR1 cells, mean ± SEM of two experiments; for inhibition at 30 min, 10 µM: human, MDCK-MDR1 cells (overexpressing P-gp), probe Calcein-AM (2.5 µM), at 10 µM, read-out: P-gp maximum inhibition
In short: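 Confluent MDCK-MDR1 monolayers preincubated 30 min at 37 °C with compound (1 nM-100 µM), then 2.5 µM Calcein-AM (final) 30 min. After ice-cold PBS washes, fluorescence read (ex 485/em 535 nm); EC50 from % fluorescence increase over untreated basal versus log dose.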

[3] = tested on: A549/DX cells; assay: Co-administration assay with doxorubicin (MTT), A549/DX cells; assay type: cell-based, human; conditions: compound 10 µM + 10 µM doxorubicin
Procedure: (§1) The co-administration assay with doxorubicin was performed in MDCK-MDR1, HT29, HT29/DX, A549 and A549/DX cells at 48 h. On day 1, 10,000 cells/well were seeded into 96-well plates in a volume of 100 µL of fresh medium. On day 2, the tested drug was added alone to the cells at different concentrations (ranging from 40 nM to 10 µM). On day 3, the medium was removed and the drug at the same concentrations was added alone and in co-administration with 10 µM doxorubicin to the cells. After the established incubation time with the tested drug, MTT (0.5 mg/mL) was added to each well, and after 3 − 4 h incubation at 37 °C, the supernatant was removed. The formazan crystals were solubilised using 100 µL of DMSO/EtOH (1:1), and the absorbance values at 570 and 630 nm were determined on the microplate reader HTX Synergy (Bio-Tek Instruments).

[4] = tested on: HT29/DX cells; assay: Co-administration assay with doxorubicin (MTT), HT29/DX cells; assay type: cell-based, human; conditions: compound 10 µM + 10 µM doxorubicin
Procedure: as §1

[5] = target: T2, MRP1 (Homo sapiens, UniProt P33527); assay: Inhibition of Calcein-AM efflux in MDCK-MRP1 cells; assay type: cell-based; conditions: for MRP1, percentage of the effect: at a concentration of 100 μM; for EC50: Calcein-AM, NA: not active
T2 construct: expressed in transfected cells; host or cells: MDCK-MRP1 (Madin-Darby Canine Kidney cells, gift of Prof. P. Borst, NKI-AVL)
T2 sequence (P33527 whole entry): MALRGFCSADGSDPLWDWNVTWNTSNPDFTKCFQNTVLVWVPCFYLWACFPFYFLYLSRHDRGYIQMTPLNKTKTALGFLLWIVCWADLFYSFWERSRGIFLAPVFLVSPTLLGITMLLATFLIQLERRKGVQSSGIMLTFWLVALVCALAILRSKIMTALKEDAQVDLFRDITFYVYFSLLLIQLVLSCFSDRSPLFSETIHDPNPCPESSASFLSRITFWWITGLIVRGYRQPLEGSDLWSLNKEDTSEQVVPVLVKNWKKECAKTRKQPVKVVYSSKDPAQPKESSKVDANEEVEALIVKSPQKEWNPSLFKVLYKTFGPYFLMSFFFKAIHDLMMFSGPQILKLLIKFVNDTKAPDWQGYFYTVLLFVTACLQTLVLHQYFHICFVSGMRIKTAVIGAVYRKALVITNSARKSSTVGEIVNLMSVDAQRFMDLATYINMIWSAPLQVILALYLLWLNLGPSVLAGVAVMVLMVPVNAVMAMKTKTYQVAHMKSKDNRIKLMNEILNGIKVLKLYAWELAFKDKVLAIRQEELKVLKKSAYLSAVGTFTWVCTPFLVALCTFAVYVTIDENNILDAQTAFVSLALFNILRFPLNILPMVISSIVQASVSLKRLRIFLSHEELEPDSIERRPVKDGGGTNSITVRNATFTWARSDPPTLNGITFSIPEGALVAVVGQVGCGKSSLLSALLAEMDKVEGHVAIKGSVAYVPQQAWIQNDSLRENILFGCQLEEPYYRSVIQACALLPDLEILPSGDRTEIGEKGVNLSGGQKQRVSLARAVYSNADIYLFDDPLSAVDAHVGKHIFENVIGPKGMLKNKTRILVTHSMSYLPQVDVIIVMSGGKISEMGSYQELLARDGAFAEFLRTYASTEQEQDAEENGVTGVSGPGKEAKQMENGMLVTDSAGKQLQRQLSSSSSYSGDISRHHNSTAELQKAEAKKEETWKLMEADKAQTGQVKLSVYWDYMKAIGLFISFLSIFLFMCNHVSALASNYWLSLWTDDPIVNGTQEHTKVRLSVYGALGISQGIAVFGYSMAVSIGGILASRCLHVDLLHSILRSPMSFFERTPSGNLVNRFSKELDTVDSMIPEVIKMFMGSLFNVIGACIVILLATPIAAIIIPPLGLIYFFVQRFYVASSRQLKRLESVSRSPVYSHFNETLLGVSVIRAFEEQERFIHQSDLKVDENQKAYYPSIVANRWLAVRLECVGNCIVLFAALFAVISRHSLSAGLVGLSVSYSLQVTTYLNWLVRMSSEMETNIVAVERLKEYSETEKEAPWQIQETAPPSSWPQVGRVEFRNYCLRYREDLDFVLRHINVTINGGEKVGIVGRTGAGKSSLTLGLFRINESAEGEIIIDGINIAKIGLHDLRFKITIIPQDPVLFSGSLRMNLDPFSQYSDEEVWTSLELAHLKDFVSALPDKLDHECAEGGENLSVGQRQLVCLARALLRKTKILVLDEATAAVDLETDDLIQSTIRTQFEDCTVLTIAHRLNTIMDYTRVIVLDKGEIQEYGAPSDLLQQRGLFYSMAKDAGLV
Procedure: These experiments were carried out as previously described by Teodori et al. with minor modifications. Each cell line (30 000 cells per well) was seeded into black CulturePlate 96/wells plate with 100 µL medium and allowed to become confluent overnight. 100 µL of test compounds were solubilised in culture medium and added to monolayers, with final concentrations ranging from 1 nM to 100 µM. 96/Wells plate was incubated for 30 min in a humidified atmosphere 5% CO2 at 37 °C. Calcein-AM was added in 100 µL of Phosphate Buffered Saline (PBS) to yield a final concentration of 2.5 µM and plate was incubated for 30 min in a humidified atmosphere 5% CO2 at 37 °C. Each well was washed 3 times with ice cold PBS. Saline buffer was added to each well and the plate was read with Victor3 (PerkinElmer) at excitation and emission wavelengths of 485 and 535 nm, respectively. In these experimental conditions, Calcein cell accumulation in the absence and in the presence of tested compounds was evaluated and fluorescence basal level was estimated with untreated cells. In treated wells the increase of fluorescence with respect to basal level was measured. EC50 values were determined by fitting the fluorescence increase percentage versus log[dose].
The interaction potency between the designed compounds and P-gp was evaluated by measuring the transport inhibition of the pro-fluorescent probe Calcein-AM, that is a P-gp substrate, in a cell line overexpressing P-gp (MDCK-MDR1)[47]. The P-gp interacting profile was further investigated with two other assays: the Apparent Permeability (Papp) determination (BA/AB) in Caco-2 cell monolayer[48]^,[49], and the ATP cell depletion in the MDCK-MDR1 cell line[50]. Taking into account the results of the combined tests, an interacting compound can be classified as substrate or inhibitor. Papp determination measures the ratio between two fluxes: from the basolateral to apical compartments (BA, representative of passive diffusion) and from the apical to basolateral compartments (AB, representative of active transport). […] In the same manner, if (BA/AB) >2, the compound should probably be classified as a substrate. […] The selectivity of ligands 1–26 was evaluated by detecting their activity towards the other ABC transporters MRP1 and BCRP, by measuring the inhibition of the efflux of Calcein-AM (i.e., also a MRP1 substrate) in cells overexpressing MRP1 (MDCK-MRP1 cells), and the inhibition of the efflux of the fluorescent probe Hoechst 33342 (i.e. a BCRP substrate) in cells overexpressing BCRP (MDCK-BCRP cells), respectively.

[6] = tested on: HT29, A549, HT29/DX and A549/DX cells; assay: Preliminary cytotoxicity of compounds alone in cancer cell lines; assay type: cell-based, human; conditions: all the tested concentrations, preliminary assays (data not shown)
Procedure: as §1
The efficacy of the compounds was next tested in cancer cell lines with various levels of P-gp, as the human adenocarcinoma colon cells (HT29) and non-small cell lung cancer cells (A549) displaying low amount of P-gp, and their resistant counterparts HT29/DX and A549/DX, with a high amount of P-gp[53]. In preliminary assays, we verified that 3 and 8 were not cytotoxic at all the tested concentration (data not shown).

[7] = tested on: MDCK-MDR1 cells; assay: Co-administration assay with doxorubicin (MTT), MDCK-MDR1 cells; assay type: cell-based, canine; conditions: compound 10 µM + 10 µM doxorubicin, MDCK-MDR1
Procedure: as §1

[8] = tested on: A549 cells; assay: Co-administration assay with doxorubicin (MTT), A549 cells; assay type: cell-based, human; conditions: compound 10 µM + 10 µM doxorubicin
Procedure: as §1

[9] = tested on: HT29 cells; assay: Co-administration assay with doxorubicin (MTT), HT29 cells; assay type: cell-based, human; conditions: compound 10 µM + 10 µM doxorubicin
Procedure: as §1

T1 sequence (P08183 whole entry): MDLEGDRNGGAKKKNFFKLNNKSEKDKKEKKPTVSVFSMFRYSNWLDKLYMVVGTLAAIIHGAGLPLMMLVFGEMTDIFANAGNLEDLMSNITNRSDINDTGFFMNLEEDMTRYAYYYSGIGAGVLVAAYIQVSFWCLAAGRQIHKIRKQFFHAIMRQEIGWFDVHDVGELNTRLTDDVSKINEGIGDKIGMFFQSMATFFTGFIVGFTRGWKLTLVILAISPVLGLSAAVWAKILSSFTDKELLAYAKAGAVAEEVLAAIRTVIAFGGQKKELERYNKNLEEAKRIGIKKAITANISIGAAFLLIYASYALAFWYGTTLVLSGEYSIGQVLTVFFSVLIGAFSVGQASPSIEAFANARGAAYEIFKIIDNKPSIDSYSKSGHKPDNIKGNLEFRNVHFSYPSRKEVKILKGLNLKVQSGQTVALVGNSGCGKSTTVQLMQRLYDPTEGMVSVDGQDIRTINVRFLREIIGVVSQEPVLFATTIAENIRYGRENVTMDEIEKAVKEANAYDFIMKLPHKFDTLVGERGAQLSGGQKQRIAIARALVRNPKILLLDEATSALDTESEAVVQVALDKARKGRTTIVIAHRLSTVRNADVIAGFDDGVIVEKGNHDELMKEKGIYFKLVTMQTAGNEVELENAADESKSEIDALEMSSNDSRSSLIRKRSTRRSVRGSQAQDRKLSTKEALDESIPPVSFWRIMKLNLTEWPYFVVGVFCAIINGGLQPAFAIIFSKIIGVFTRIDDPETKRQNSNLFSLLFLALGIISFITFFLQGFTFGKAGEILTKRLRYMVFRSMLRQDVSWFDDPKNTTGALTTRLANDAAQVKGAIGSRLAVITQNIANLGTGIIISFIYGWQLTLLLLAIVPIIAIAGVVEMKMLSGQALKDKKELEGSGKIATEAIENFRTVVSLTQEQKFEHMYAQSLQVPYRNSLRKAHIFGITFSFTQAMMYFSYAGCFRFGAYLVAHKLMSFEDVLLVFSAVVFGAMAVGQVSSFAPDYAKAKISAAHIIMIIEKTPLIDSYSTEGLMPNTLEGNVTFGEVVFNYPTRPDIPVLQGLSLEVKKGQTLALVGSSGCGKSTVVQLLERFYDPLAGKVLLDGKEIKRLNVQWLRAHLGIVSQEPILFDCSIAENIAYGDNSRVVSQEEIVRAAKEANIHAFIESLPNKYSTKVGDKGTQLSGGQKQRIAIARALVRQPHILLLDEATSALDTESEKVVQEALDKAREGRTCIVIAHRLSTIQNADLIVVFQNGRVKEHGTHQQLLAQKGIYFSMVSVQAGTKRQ

ATP cell depletion [1] | EC50 [2] | Compound | further results
No | 530 ± 100 nM | COc1cc2c(cc1OC)CN(CCc1ccc(NC(=O)c3ccc(OC)c(OC)c3OC)cc1)CC2 [Compound 1, N-(4–(2-(6,7-dimethoxy-3,4-dihydroisoquinolin-2(1H)-yl)ethyl)phenyl)-2,3,4-trimethoxybenzamide] | –
No | 40.5 ± 8 nM | COc1ccc(C(=O)Nc2ccc(CCN3CCc4cc(OC)c(OC)cc4C3)cc2)c(OC)c1 [Compound 3, N-(4–(2-(6,7-dimethoxy-3,4-dihydroisoquinolin-2(1H)-yl)ethyl)phenyl)-2,4-dimethoxybenzamide] | reduction of cell viability, co-administration with doxorubicin [3]: 40%; reduction of cell viability, co-administration with doxorubicin [4]: 35%; MRP1, percentage of the effect [5]: 31%^d; cytotoxicity, compound alone [6]: not cytotoxic; cytotoxicity, co-administration with doxorubicin [7]: 77%; inhibition at 30 min, 10 µM [2]: 90 to 95%; reduction of cell viability, co-administration with doxorubicin [8]: 25%; reduction of cell viability, co-administration with doxorubicin [9]: 5%
No | 260 ± 50 nM | COc1cc2c(cc1OC)CN(CCc1ccc(NC(=O)c3cccc(OC)c3OC)cc1)CC2 [Compound 5, N-(4–(2-(6,7-dimethoxy-3,4-dihydroisoquinolin-2(1H)-yl)ethyl)phenyl)-2,3-dimethoxybenzamide] | –
No | 47.8 ± 9.3 nM | COc1cc2c(cc1OC)CN(CCc1ccc(NC(=O)c3c(OC)c(OC)cc4ccccc34)cc1)CC2 [Compound 8, N-(4–(2-(6,7-dimethoxy-3,4-dihydroisoquinolin-2(1H)-yl)ethyl)phenyl)-2,3-dimethoxy-1-naphthamide] | reduction of cell viability, co-administration with doxorubicin [3]: 49%; reduction of cell viability, co-administration with doxorubicin [4]: 29%; MRP1, percentage of the effect [5]: 47%^d; cytotoxicity, compound alone [6]: not cytotoxic; cytotoxicity, co-administration with doxorubicin [7]: around 50%; inhibition at 30 min, 10 µM [2]: 90 to 95%; reduction of cell viability, co-administration with doxorubicin [8]: 25%; reduction of cell viability, co-administration with doxorubicin [9]: 10%
No | 360 ± 69 nM | COc1cc2c(cc1OC)CN(CCc1ccc(OC(=O)c3ccc(OC)c(OC)c3OC)cc1)CC2 [Compound 14, 4–(2-(6,7-Dimethoxy-3,4-dihydroisoquinolin-2(1H)-yl)ethyl)phenyl 2,3,4-trimethoxybenzoate] | EC50 [5]: 69700 ± 13900 nM
No | 730 ± 140 nM | COc1cc2c(cc1OC)CN(CCc1ccc(OC(=O)c3ccccc3OC)cc1)CC2 [Compound 15, 4–(2-(6,7-Dimethoxy-3,4-dihydroisoquinolin-2(1H)-yl)ethyl)phenyl 2-methoxybenzoate] | –
No | 100 ± 20 nM | COc1ccc(C(=O)Oc2ccc(CCN3CCc4cc(OC)c(OC)cc4C3)cc2)c(OC)c1 [Compound 16, 4–(2-(6,7-Dimethoxy-3,4-dihydroisoquinolin-2(1H)-yl)ethyl)phenyl 2,4-dimethoxybenzoate] | EC50 [5]: 87000 ± 17000 nM
No | 340 ± 70 nM | COc1cc2c(cc1OC)CN(CCc1ccc(OC(=O)c3cccc(OC)c3OC)cc1)CC2 [Compound 18, 4–(2-(6,7-Dimethoxy-3,4-dihydroisoquinolin-2(1H)-yl)ethyl)phenyl 2,3-dimethoxybenzoate] | –
No | 840 ± 160 nM | COc1cc2c(cc1OC)CN(CCc1ccc(OC(=O)c3cccc4ccccc34)cc1)CC2 [Compound 19, 4–(2-(6,7-Dimethoxy-3,4-dihydroisoquinolin-2(1H)-yl)ethyl)phenyl 1-naphthoate] | –
No | 110 ± 20 nM | COc1cc2c(cc1OC)CN(CCc1ccc(OC(=O)c3c(OC)ccc4ccccc34)cc1)CC2 [Compound 20, 4–(2-(6,7-Dimethoxy-3,4-dihydroisoquinolin-2(1H)-yl)ethyl)phenyl 2-methoxy-1-naphthoate] | –
No | 100 ± 20 nM | COc1cc2c(cc1OC)CN(CCc1ccc(OC(=O)c3c(OC)c(OC)cc4ccccc34)cc1)CC2 [Compound 21, 4–(2-(6,7-Dimethoxy-3,4-dihydroisoquinolin-2(1H)-yl)ethyl)phenyl 2,3-dimethoxy-1-naphthoate] | –

— PMC7178819, “6,7-Dimethoxy-2-phenethyl-1,2,3,4-tetrahydroisoquinoline amides and corresponding ester isosteres as multidrug resistance reversers” (Journal of Enzyme Inhibition and Medicinal Chemistry, 2020)
